US11000033B2, “Ketone or oxime compound, and herbicide” (NISSAN CHEMICAL CORPORATION, priority 2014, dated 2021)

Experiments:
Assay type in all cases: in vivo
[1] = system: soybean; test: Test Example 4: effect on crop by soil treatment (symbol d); details: for d: soybean, effect grade on crop: 320 g/ha
Outline: (§1)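 Diluvial soil (sterilized) in boxes; seeds placed spot-wise alongside weed species; ~1.5 cm covering soil. Greenhouse, 25–30° C.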

[2] = system: Amaranthus retroflexus; test: Test Example 4: herbicidal effect by soil treatment (symbol N)
Outline: (§2)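 Seeds were sown in sterilized diluvial soil, covered with about 1.5 cm of soil, and the soil surface was sprayed with a water-diluted emulsion of the compound at a predetermined rate. Plants grew in a greenhouse at 25° C. to 30° C.; effects were scored visually 3 weeks after application.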

[3] = system: Chenopodium album; test: Test Example 5: herbicidal effect by foliage application, plastic box (symbol O); details: 320 g/ha, 3 weeks after application
Outline: (§3)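 Emulsion formulation, diluted with water to the intended rate, was applied uniformly to leaves by small sprayer. Recipients were 14-day greenhouse-grown seedlings (25° C. to 30° C.). Assessment followed at 3 weeks.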

[4] = system: Amaranthus retroflexus; test: Test Example 5: herbicidal effect by foliage application, plastic box (symbol N); details: 320 g/ha, 3 weeks after application
Outline: as §3

[5] = system: wheat; test: Test Example 4: effect on crop by soil treatment (symbol e); details: for e: wheat, effect grade on crop: 320 g/ha
Outline: as §1

[6] = system: Abutilon theophrasti; test: Test Example 5: herbicidal effect by foliage application, plastic box (symbol M); details: 320 g/ha, 3 weeks after application
Outline: as §3

[7] = system: Echinochloa crus-galli var. crus-galli; test: Test Example 3: herbicidal effect by foliage application, Wagner pot (symbol H); details: application herbicide amount 320 g/ha
Outline: (§4)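 Post-emergence, paddy-type test: seedlings 14 d old in shallow-flooded (0.1–0.5 cm) alluvial soil, 25–30 °C greenhouse. Emulsion diluted to target rate, sprayed on leaves. Read-out: visual effect on each species at 3 weeks, per set criteria.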

[8] = system: Scirpus juncoides; test: Test Example 2: herbicidal activity, application during weed generation in submerged conditions (symbol B); details: Table 23; application herbicide amount 320 g/ha; grade 0-5 by criteria of Test Example 1
Outline: (§5)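 Steps: fill pots with alluvial soil; add water to 4 cm depth; co-sow the three weeds; grow at 25° C. to 30° C. under glass; at 1–2 leaves, dose the floodwater with diluted emulsion; rate damage visually after 3 weeks.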

[9] = system: Setaria viridis; test: Test Example 5: herbicidal effect by foliage application, plastic box (symbol G); details: 320 g/ha, 3 weeks after application
Outline: as §3

[10] = system: rice plant; test: Test Example 5: effect on crop by foliage application, plastic box (symbol b); details: 320 g/ha, 3 weeks after application
Outline: (§6)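 Box culture: sterile diluvial soil, seeds spot-sown, ~1.5 cm cover, raised under glass at 25–30° C.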

[11] = system: Echinochloa oryzacola Vasing.; test: Test Example 2: herbicidal activity, application during weed generation in submerged conditions (symbol A); details: Table 23; application herbicide amount 320 g/ha; grade 0-5 by criteria of Test Example 1
Outline: as §5

[12] = system: beet; test: Test Example 5: effect on crop by foliage application, plastic box (symbol f); details: 320 g/ha, 3 weeks after application
Outline: as §6

[13] = system: Cyperus difformis; test: Test Example 3: herbicidal effect by foliage application, Wagner pot (symbol E); details: application herbicide amount 320 g/ha
Outline: as §4

[14] = system: Lolium multiflorum Lam.; test: Test Example 4: herbicidal effect by soil treatment (symbol K)
Outline: as §2

[15] = system: Stellaria media; test: Test Example 5: herbicidal effect by foliage application, plastic box (symbol P); details: 320 g/ha, 3 weeks after application
Outline: as §3

[16] = system: Alopecurus myosuroides; test: Test Example 4: herbicidal effect by soil treatment (symbol J)
Outline: as §2

[17] = system: Veronica persica; test: Test Example 5: herbicidal effect by foliage application, plastic box (symbol R); details: 320 g/ha, 3 weeks after application
Outline: as §3

[18] = system: Echinochloa crus-galli var. crus-galli; test: Test Example 4: herbicidal effect by soil treatment (symbol H)
Outline: as §2

[19] = system: beet; test: Test Example 4: effect on crop by soil treatment (symbol f); details: for f: beet, effect grade on crop: 320 g/ha
Outline: as §1

[20] = application herbicide amount 320 g/ha

With CON=C(CC1CC(OC(=O)C(C)(C)C)=C(c2c(C)cc(C)cc2OC)C1=O)C1CC1 (mixture of isomers) [13-006] the “d: soybean, effect on crop grade” value [1, 20] was 0 (Herbicidal ratio of 5% or lower (almost no effect)), the “N: Amaranthus retroflexus, herbicidal effect grade” value [2, 20] was 0 (Herbicidal ratio of 5% or lower (almost no effect)) and the “O: Chenopodium album, herbicidal effect grade” value [3] was 2 (Herbicidal ratio of 20% or higher and lower than 40%). The “N: Amaranthus retroflexus, herbicidal effect grade” value [4] was 3 (Herbicidal ratio of 40% or higher and lower than 70%), the “e: wheat, effect on crop grade” value [5, 20] was 4 (Herbicidal ratio of 70% or higher and lower than 90%) and the “M: Abutilon theophrasti, herbicidal effect grade” value [6] was 4 (Herbicidal ratio of 70% or higher and lower than 90%). For the same compound, the “H (Echinochloa crus-galli var. crus-galli) herbicidal effect grade” value ([7]; Table 24) was 5 (Herbicidal ratio of 90% or more (almost completely withered)), the “Herbicidal effect grade, B: Scirpus juncoides” value (shortened to “Herbicidal effect grade, B”) [8] was 3 (Herbicidal ratio of 40% or higher and lower than 70%) and the “G: Setaria viridis, herbicidal effect grade” value [9] was 5 (Herbicidal ratio of 90% or more (almost completely withered)). The “b: directly sowed rice plant, effect on crop grade” value [10] was 5 (Herbicidal ratio of 90% or more (almost completely withered)), the “Herbicidal effect grade, A: Echinochloa oryzacola Vasing.” value [11] was 5 (Herbicidal ratio of 90% or more (almost completely withered)) and the “f: beet, effect on crop grade” value [12] was 3 (Herbicidal ratio of 40% or higher and lower than 70%). The “E herbicidal effect grade” value ([13]; Table 24) was 5 (Herbicidal ratio of 90% or more (almost completely withered)), the “K: Lolium multiflorum Lam., herbicidal effect grade” value [14, 20] was 5 (Herbicidal ratio of 90% or more (almost completely withered)) and the “P: Stellaria media, herbicidal effect grade” value [15] was 3 (Herbicidal ratio of 40% or higher and lower than 70%). The “J: Alopecurus myosuroides, herbicidal effect grade” value (from here on “J: Alopecurus myosuroides”) [16, 20] was 5 (Herbicidal ratio of 90% or more (almost completely withered)), the “R: Veronica persica, herbicidal effect grade” value [17] was 2 (Herbicidal ratio of 20% or higher and lower than 40%) and the “H: Echinochloa crus-galli var. crus-galli, herbicidal effect grade” value [18, 20] was 5 (Herbicidal ratio of 90% or more (almost completely withered)). For the same compound, the “f: beet, effect on crop grade” value [19, 20] was 0 (Herbicidal ratio of 5% or lower (almost no effect)).

CON=C(C)CC1CC(OC(=O)C(CSC)=NOC)=C(c2c(C)cc(C)cc2C)C1=O (stereo not shown) [1-098] was tested, and the “d: soybean, effect grade on crop” value [1] was 2 (Herbicidal ratio of 20% or higher and lower than 40%), the “N: Amaranthus retroflexus, herbicidal effect grade” value ([2]; 320 g/ha) was 4 (Herbicidal ratio of 70% or higher and lower than 90%) and the “O: Chenopodium album, herbicidal effect (criteria 0-5)” value (from here on “O: Chenopodium album … (criteria 0-5)”) [3] was 0 (Herbicidal ratio of 5% or lower (almost no effect)). For the same compound, the “N: Amaranthus retroflexus, herbicidal effect (criteria 0-5)” value [4] was 0 (Herbicidal ratio of 5% or lower (almost no effect)), the “e: wheat, effect grade on crop” value [5] was 3 (Herbicidal ratio of 40% or higher and lower than 70%) and the “M: Abutilon theophrasti, herbicidal effect (criteria 0-5)” value [6] was 4 (Herbicidal ratio of 70% or higher and lower than 90%). The “herbicidal effect on H (Echinochloa crus-galli var. crus-galli), grade 0-5” value (“herbicidal effect on H” below) [7] was 5 (Herbicidal ratio of 90% or more (almost completely withered)), the “Herbicidal effect grade, B” value [8] was 4 (Herbicidal ratio of 70% or higher and lower than 90%) and the “G: Setaria viridis, herbicidal effect (criteria 0-5)” value (from here on “G: Setaria viridis … (criteria 0-5)”) [9] was 5 (Herbicidal ratio of 90% or more (almost completely withered)). The “b: directly sowed rice plant, effect on crop (criteria 0-5)” value [10] was 5 (Herbicidal ratio of 90% or more (almost completely withered)), the “Herbicidal effect grade, A: Echinochloa oryzacola Vasing.” value [11] was 5 (Herbicidal ratio of 90% or more (almost completely withered)) and the “f: beet, effect on crop (criteria 0-5)” value [12] was 1 (Herbicidal ratio of 5% or higher and lower than 20%). For the same compound, the “herbicidal effect on E, grade 0-5” value [13] was 5 (Herbicidal ratio of 90% or more (almost completely withered)), the “K: Lolium multiflorum Lam., herbicidal effect grade” value ([14]; 320 g/ha) was 5 (Herbicidal ratio of 90% or more (almost completely withered)) and the “P: Stellaria media, herbicidal effect (criteria 0-5)” value (from here on “P: Stellaria media … (criteria 0-5)”) [15] was 3 (Herbicidal ratio of 40% or higher and lower than 70%). For the same compound, the “J: Alopecurus myosuroides” value ([16]; 320 g/ha) was 5 (Herbicidal ratio of 90% or more (almost completely withered)), the “R: Veronica persica, herbicidal effect (criteria 0-5)” value (from here on “R: Veronica persica … (criteria 0-5)”) [17] was 3 (Herbicidal ratio of 40% or higher and lower than 70%) and the “H: Echinochloa crus-galli var. crus-galli, herbicidal effect grade” value ([18]; 320 g/ha) was 5 (Herbicidal ratio of 90% or more (almost completely withered)). For the same compound, the “f: beet, effect grade on crop” value [19] was 0 (Herbicidal ratio of 5% or lower (almost no effect)).

In the case of CON=C(C)CC1CC(OC(=O)c2cc(C)on2)=C(c2c(C)cc(C)cc2C)C1=O (stereo not shown) [1-100], the “d: soybean, effect grade on crop” value [1] is reported as 2 (Herbicidal ratio of 20% or higher and lower than 40%), the “N: Amaranthus retroflexus, herbicidal effect grade” value ([2]; 320 g/ha) is reported as 2 (Herbicidal ratio of 20% or higher and lower than 40%) and the “O: Chenopodium album … (criteria 0-5)” value [3] is reported as 1 (Herbicidal ratio of 5% or higher and lower than 20%). For the same compound, the “N: Amaranthus retroflexus, herbicidal effect (criteria 0-5)” value [4] was 0 (Herbicidal ratio of 5% or lower (almost no effect)), the “e: wheat, effect grade on crop” value [5] was 5 (Herbicidal ratio of 90% or more (almost completely withered)) and the “M: Abutilon theophrasti, herbicidal effect (criteria 0-5)” value [6] was 4 (Herbicidal ratio of 70% or higher and lower than 90%). The “herbicidal effect on H” value [7] was 5 (Herbicidal ratio of 90% or more (almost completely withered)), the “Herbicidal effect grade, B” value [8] was 5 (Herbicidal ratio of 90% or more (almost completely withered)) and the “G: Setaria viridis … (criteria 0-5)” value [9] was 5 (Herbicidal ratio of 90% or more (almost completely withered)). The “b: directly sowed rice plant, effect on crop (criteria 0-5)” value [10] was 5 (Herbicidal ratio of 90% or more (almost completely withered)), the “Herbicidal effect grade, A: Echinochloa oryzacola Vasing.” value [11] was 5 (Herbicidal ratio of 90% or more (almost completely withered)) and the “f: beet, effect on crop (criteria 0-5)” value [12] was 0 (Herbicidal ratio of 5% or lower (almost no effect)). For the same compound, the “herbicidal effect on E, grade 0-5” value [13] was 5 (Herbicidal ratio of 90% or more (almost completely withered)), the “K: Lolium multiflorum Lam., herbicidal effect grade” value ([14]; 320 g/ha) was 5 (Herbicidal ratio of 90% or more (almost completely withered)) and the “P: Stellaria media … (criteria 0-5)” value [15] was 0 (Herbicidal ratio of 5% or lower (almost no effect)). For the same compound, the “J: Alopecurus myosuroides” value ([16]; 320 g/ha) was 5 (Herbicidal ratio of 90% or more (almost completely withered)), the “R: Veronica persica … (criteria 0-5)” value [17] was 3 (Herbicidal ratio of 40% or higher and lower than 70%) and the “H: Echinochloa crus-galli var. crus-galli, herbicidal effect grade” value ([18]; 320 g/ha) was 5 (Herbicidal ratio of 90% or more (almost completely withered)). For the same compound, the “f: beet, effect grade on crop” value [19] was 0 (Herbicidal ratio of 5% or lower (almost no effect)).

In the case of CC(CC1CC(O)=C(c2c(C)cc(C)cc2C)C1=O)=NOCC#N (stereo not shown) [1-102], the “d: soybean, effect grade on crop” value [1] is reported as 0 (Herbicidal ratio of 5% or lower (almost no effect)), the “N: Amaranthus retroflexus, herbicidal effect grade” value ([2]; 320 g/ha) is reported as 0 (Herbicidal ratio of 5% or lower (almost no effect)) and the “O: Chenopodium album … (criteria 0-5)” value [3] is reported as 3 (Herbicidal ratio of 40% or higher and lower than 70%). The “N: Amaranthus retroflexus, herbicidal effect (criteria 0-5)” value [4] was 0 (Herbicidal ratio of 5% or lower (almost no effect)), the “e: wheat, effect grade on crop” value [5] was 0 (Herbicidal ratio of 5% or lower (almost no effect)) and the “M: Abutilon theophrasti, herbicidal effect (criteria 0-5)” value [6] was 0 (Herbicidal ratio of 5% or lower (almost no effect)). The “herbicidal effect on H” value [7] was 5 (Herbicidal ratio of 90% or more (almost completely withered)), the “Herbicidal effect grade, B” value [8] was 2 (Herbicidal ratio of 20% or higher and lower than 40%) and the “G: Setaria viridis … (criteria 0-5)” value [9] was 5 (Herbicidal ratio of 90% or more (almost completely withered)). For the same compound, the “b: directly sowed rice plant, effect on crop (criteria 0-5)” value [10] was 5 (Herbicidal ratio of 90% or more (almost completely withered)), the “Herbicidal effect grade, A: Echinochloa oryzacola Vasing.” value [11] was 5 (Herbicidal ratio of 90% or more (almost completely withered)) and the “f: beet, effect on crop (criteria 0-5)” value [12] was 0 (Herbicidal ratio of 5% or lower (almost no effect)). For the same compound, the “herbicidal effect on E, grade 0-5” value [13] was 5 (Herbicidal ratio of 90% or more (almost completely withered)), the “K: Lolium multiflorum Lam., herbicidal effect grade” value ([14]; 320 g/ha) was 5 (Herbicidal ratio of 90% or more (almost completely withered)) and the “P: Stellaria media … (criteria 0-5)” value [15] was 0 (Herbicidal ratio of 5% or lower (almost no effect)). For the same compound, the “J: Alopecurus myosuroides” value ([16]; 320 g/ha) was 5 (Herbicidal ratio of 90% or more (almost completely withered)), the “R: Veronica persica … (criteria 0-5)” value [17] was 2 (Herbicidal ratio of 20% or higher and lower than 40%) and the “H: Echinochloa crus-galli var. crus-galli, herbicidal effect grade” value ([18]; 320 g/ha) was 5 (Herbicidal ratio of 90% or more (almost completely withered)). For the same compound, the “f: beet, effect grade on crop” value [19] was 0 (Herbicidal ratio of 5% or lower (almost no effect)).
